pIC50: −log10 of the molar value.
Biological target: Xanthine dehydrogenase/oxidase (Bos taurus, UniProt P80457)
Experiment: Inhibition Assay: Test compounds were dissolved in DMSO (Wako) at 40 mM concentration and then diluted to intended concentrations with phosphate-buffered saline (PBS). Xanthine oxidase (from bovine milk, Sigma) was prepared with phosphate-buffered saline (PBS) at 0.02 units/mL, and then the solution was added to 96 well plates at 50 μL/well. In addition, test compounds diluted with PBS were added at 50 μL/well. Xanthine (Wako) at 200 μM prepared with PBS was added at 100 μL/well, and the reaction was conducted for 10 minutes at room temperature. Absorbance at 290 nm was measured using a microplate reader SpectraMax Plus 384 (Molecular device). The absorbance under a condition without xanthine is 0%, and control without test compounds is 100%.

Chain of Xanthine dehydrogenase/oxidase (P80457 whole entry): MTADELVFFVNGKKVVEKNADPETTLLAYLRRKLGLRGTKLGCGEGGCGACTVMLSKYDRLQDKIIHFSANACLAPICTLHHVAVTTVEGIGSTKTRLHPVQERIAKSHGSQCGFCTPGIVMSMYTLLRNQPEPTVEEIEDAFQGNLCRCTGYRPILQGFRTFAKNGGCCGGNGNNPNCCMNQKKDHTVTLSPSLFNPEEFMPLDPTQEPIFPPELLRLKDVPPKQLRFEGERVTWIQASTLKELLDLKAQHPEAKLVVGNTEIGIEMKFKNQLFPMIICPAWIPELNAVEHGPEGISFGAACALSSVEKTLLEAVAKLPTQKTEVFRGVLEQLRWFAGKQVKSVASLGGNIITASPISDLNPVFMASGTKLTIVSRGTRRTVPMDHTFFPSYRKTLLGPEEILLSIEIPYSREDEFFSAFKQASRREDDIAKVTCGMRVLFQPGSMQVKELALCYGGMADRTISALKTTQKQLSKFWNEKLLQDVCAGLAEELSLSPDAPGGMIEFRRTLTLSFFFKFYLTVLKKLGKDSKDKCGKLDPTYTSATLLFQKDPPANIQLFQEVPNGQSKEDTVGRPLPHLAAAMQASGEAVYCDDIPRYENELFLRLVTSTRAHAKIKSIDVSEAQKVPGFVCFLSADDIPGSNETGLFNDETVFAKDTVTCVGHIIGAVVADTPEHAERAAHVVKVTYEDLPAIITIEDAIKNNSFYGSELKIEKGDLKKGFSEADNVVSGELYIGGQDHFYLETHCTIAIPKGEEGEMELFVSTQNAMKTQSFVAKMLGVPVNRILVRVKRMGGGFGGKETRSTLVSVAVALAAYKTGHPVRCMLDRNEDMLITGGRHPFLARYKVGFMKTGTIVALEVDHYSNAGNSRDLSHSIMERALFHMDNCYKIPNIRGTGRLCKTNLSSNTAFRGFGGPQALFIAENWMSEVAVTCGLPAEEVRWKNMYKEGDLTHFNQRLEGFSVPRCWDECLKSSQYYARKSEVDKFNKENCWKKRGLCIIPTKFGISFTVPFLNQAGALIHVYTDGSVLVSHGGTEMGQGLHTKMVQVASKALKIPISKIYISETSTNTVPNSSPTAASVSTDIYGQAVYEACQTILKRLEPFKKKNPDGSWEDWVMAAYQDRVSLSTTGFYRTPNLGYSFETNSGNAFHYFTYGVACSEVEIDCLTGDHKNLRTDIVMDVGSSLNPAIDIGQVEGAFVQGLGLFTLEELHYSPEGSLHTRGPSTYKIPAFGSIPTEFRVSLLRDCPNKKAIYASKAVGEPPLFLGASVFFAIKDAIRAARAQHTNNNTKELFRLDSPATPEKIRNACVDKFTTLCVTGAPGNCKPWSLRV

N#Cc1cn(-c2ccc(C(=O)O)cn2)c2ccccc12
pIC50: 7.14
